Source: patent publication US20230072421A1, “TARGETED RADIOPHARMACEUTICALS FOR THE DIAGNOSIS AND TREATMENT OF PROSTATE CANCER” (Bayer AS, priority 2019, published 2023)

Assay: Biodistribution study in LNCaP tumor-bearing mice (Th227 counted in organs)
Format: in vivo, SCID mice
Outline: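 Th227 in excised, weighed organs was counted with a Germanium detector at predetermined time points (n=3 mice each). This followed one i.v. injection of radiolabelled compound into testosterone-supplemented SCID mice carrying LNCaP xenografts in Matrigel, dosed once tumors reached ~50 mm^2.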

[1] = 0.25 h, 500 kBq/kg, study b2999

## O=C([O-])CN1CCN(CC(=O)[O-])CCN(CC(=O)NCC2CCC(C(=O)NC(Cc3ccc4ccccc4c3)C(=O)NCCCCC(NC(=O)NC(CCC(=O)O)C(=O)O)C(=O)O)CC2)CCN(CC(=O)[O-])CC1.[227Th+4] [Example 1-B-227Th, [^227Th]Thorium (3S,10S,14S)-3-[(naphthalen-2-yl)methyl]-1,4,12-trioxo-1-{(1r,4S)-4-[(2-{4,7,10-tris[(carboxy-kappaO)methyl]-1,4,7,10-tetraazacyclododecan-1-yl-kappa^4N^1,N^4,N^7,N^10}acetamido)methyl]cyclohexyl}-2,5,11,13-tetraazahexadecane-10,14,16-tricarboxylate]
[1]
  Th-227 in Blood: 1.68 % ID Th-227/g organ
  Th-227 in Femur and tibia: 1.31 % ID Th-227/g organ
  Th-227 in Kidneys: 114.94 % ID Th-227/g organ
  Th-227 in Liver: 0.92 % ID Th-227/g organ
  Th-227 in Salivary gland: 10.22 % ID Th-227/g organ
  Th-227 in Spleen: 6.51 % ID Th-227/g organ
  Th-227 in Tumor: 8.41 % ID Th-227/g organ
  Th-227 in prostate: 8.53 % ID Th-227/g organ
0.25 h, 1500 kBq/kg
  Th-227 in Blood: 6.68% ID Th-227/g organ
  Th-227 in Liver: 2.01% ID Th-227/g organ
  Th-227 in Spleen: 11.41% ID Th-227/g organ
  Th-227 in Tumor: 6.89% ID Th-227/g organ
  Th-227 in bone: 2.42% ID Th-227/g organ
  Th-227 in brain: 0.27% ID Th-227/g organ
  Th-227 in kidney: 36.39% ID Th-227/g organ
  Th-227 in large intestine: 1.08% ID Th-227/g organ
  Th-227 in lung: 4.42% ID Th-227/g organ
  Th-227 in muscle: 1.06% ID Th-227/g organ
  Th-227 in prostate: 7.80% ID Th-227/g organ
  Th-227 in salivary glands: 2.81% ID Th-227/g organ
  Th-227 in small intestine: 1.14% ID Th-227/g organ
1 hr, 500 kBq/kg, study b2999
  Th-227 in Blood: 0.37 % ID Th-227/g organ
  Th-227 in Femur and tibia: 0.78 % ID Th-227/g organ
  Th-227 in Kidneys: 150.81 % ID Th-227/g organ
  Th-227 in Liver: 0.41 % ID Th-227/g organ
  Th-227 in Salivary gland: 17.15 % ID Th-227/g organ
  Th-227 in Spleen: 6.04 % ID Th-227/g organ
  Th-227 in Tumor: 10.87 % ID Th-227/g organ
  Th-227 in prostate: 9.05 % ID Th-227/g organ
1 hr, 1500 kBq/kg
  Th-227 in Blood: 3.85% ID Th-227/g organ
  Th-227 in Liver: 1.99% ID Th-227/g organ
  Th-227 in Spleen: 9.16% ID Th-227/g organ
  Th-227 in Tumor: 7.34% ID Th-227/g organ
  Th-227 in bone: 5.16% ID Th-227/g organ
  Th-227 in brain: 0.07% ID Th-227/g organ
  Th-227 in kidney: 38.11% ID Th-227/g organ
  Th-227 in large intestine: 0.57% ID Th-227/g organ
  Th-227 in lung: 2.88% ID Th-227/g organ
  Th-227 in muscle: 0.76% ID Th-227/g organ
  Th-227 in prostate: 1.15% ID Th-227/g organ
  Th-227 in salivary glands: 1.62% ID Th-227/g organ
  Th-227 in small intestine: 0.84% ID Th-227/g organ
4 hr, 1500 kBq/kg
  Th-227 in Blood: 1.05% ID Th-227/g organ
  Th-227 in Liver: 1.32% ID Th-227/g organ
  Th-227 in Spleen: 6.17% ID Th-227/g organ
  Th-227 in Tumor: 13.09% ID Th-227/g organ
  Th-227 in bone: 7.25% ID Th-227/g organ
  Th-227 in brain: 0.04% ID Th-227/g organ
  Th-227 in kidney: 32.13% ID Th-227/g organ
  Th-227 in large intestine: 0.76% ID Th-227/g organ
  Th-227 in lung: 1.55% ID Th-227/g organ
  Th-227 in muscle: 0.37% ID Th-227/g organ
  Th-227 in prostate: 1.06% ID Th-227/g organ
  Th-227 in salivary glands: 0.72% ID Th-227/g organ
  Th-227 in small intestine: 0.74% ID Th-227/g organ
6 hr, 500 kBq/kg, study b2999
  Th-227 in Blood: 0.06 % ID Th-227/g organ
  Th-227 in Femur and tibia: 0.31 % ID Th-227/g organ
  Th-227 in Kidneys: 67.34 % ID Th-227/g organ
  Th-227 in Liver: 0.19 % ID Th-227/g organ
  Th-227 in Salivary gland: 2.84 % ID Th-227/g organ
